Experimental data taken from ChEMBL document CHEMBL1201862, “PubChem BioAssay data set” (2004).
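Results reflect a 48-hour exposure of cells in 96-well plates to compound at five concentrations. Abbreviation: GI50, concentration required for 50% inhibition of growth.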 Calls of active or inactive are those of the source. Cut-off read from the data, not from the text of the source: active = GI50 up to about 1.1 µM and inactive = higher.

Tests used:
Experiment in all cases: NCI-60 cell line screen, 48 h
RXF 631 = tested on: RXF 631
M19-MEL = tested on: M19-MEL
LXFL 529 = tested on: LXFL 529
HOP-18 = tested on: HOP-18
DLD-1 = tested on: DLD-1
KM-20L2 = tested on: KM-20L2
XF498 = tested on: XF498
SNB-78 = tested on: SNB-78

Measured: GI50

CN(C)CCNC(=O)c1cccc2nc3c4ccccc4c4ccccc4c3nc12
inactive: RXF 631 2330 nM | M19-MEL 1880 nM | LXFL 529 2190 nM | HOP-18 8710 nM | DLD-1 1560 nM | KM-20L2 3800 nM | XF498 2470 nM | SNB-78 14800 nM
